Where “and” joins values, the source holds several entries; their conditions need not be identical. Equal values may be shown once.
Species on record: Rattus norvegicus
Experiment: DrugMatrix - Regimen: Daily Repeat
Type: toxicity, organism-based, Sprague-Dawley
Parameters: regimen Daily Repeat, gender Male, age 6-8 weeks
Details: in vivo, po, route oral GAVAGE, vehicle .5 % CMC; for BASOPHIL / EOSINOPHIL / ERYTHROCYTE COUNT / HEMATOCRIT / HEMOGLOBIN / LEUKOCYTE COUNT / LYMPHOCYTE / MEAN CORPUSCULAR HEMOGLOBIN / MEAN CORPUSCULAR HEMOGLOBIN CONCENTRATION / MEAN CORPUSCULAR VOLUME / MONOCYTE / NEUTROPHIL / PLATELET COUNT / ABSOLUTE BASOPHIL / ABSOLUTE EOSINOPHIL / ABSOLUTE LYMPHOCYTE / ABSOLUTE MONOCYTE / ABSOLUTE SEGMENTED NEUTROPHIL: tissue Blood; for ALANINE AMINOTRANSFERASE / ALBUMIN / ALKALINE PHOSPHATASE / ASPARTATE AMINOTRANSFERASE / BLOOD UREA NITROGEN / CHLORIDE / CHOLESTEROL / CREATINE PHOSPHOKINASE / CREATININE / GLUCOSE / PHOSPHORUS / POTASSIUM / SODIUM / TOTAL BILIRUBIN / TOTAL PROTEIN / LACTATE DEHYDROGENASE / LIPASE / URIC ACID: tissue Plasma
[1] = 0 mg/kg, 72 h, dose level Control, time 3 day
[2] = 0 mg/kg, 120 h, dose level Control, time 5 day
[3] = 0 mg/kg, 2184 h, dose level Control, time 91 day
[4] = 0 mg/kg, […], dose level Control, time 28 day
[5] = 80 mg/kg, 120 h, dose level Low, time 5 day
[6] = 80 mg/kg, 2184 h, dose level Low, time 91 day

O=c1cc(-c2ccccc2)oc2ccc3ccccc3c12 [BETA-NAPHTHOFLAVONE]
BASOPHIL [1]: 0.52%
EOSINOPHIL [1]: 0.48%
ERYTHROCYTE COUNT [1]: 6.68 x10E6/uL
HEMATOCRIT [1]: 43.07%
HEMOGLOBIN [1]: 13.48 G/DL
LEUKOCYTE COUNT [1]: 11.41 x10E3/uL
LYMPHOCYTE [1]: 80.78%
MEAN CORPUSCULAR HEMOGLOBIN [1]: 20.2 pg
MEAN CORPUSCULAR HEMOGLOBIN CONCENTRATION [1]: 31.32 G/DL
MEAN CORPUSCULAR VOLUME [1]: 64.45 fL
MONOCYTE [1]: 2.23%
NEUTROPHIL [1]: 14.73%
PLATELET COUNT [1]: 1225.83 x10E3/uL
ALANINE AMINOTRANSFERASE [1]: 44.5 u/L
ALBUMIN [1]: 3.62 G/DL
ALKALINE PHOSPHATASE [1]: 404.5 u/L
ASPARTATE AMINOTRANSFERASE [1]: 71.67 u/L
BLOOD UREA NITROGEN [1]: 15 mg/dL
CHLORIDE [1]: 103 MEQ/L
CHOLESTEROL [1]: 96.83 mg/dL
CREATINE PHOSPHOKINASE [1]: 236 u/L
CREATININE [1]: 0.43 mg/dL
GLUCOSE [1]: 186.83 mg/dL
PHOSPHORUS [1]: 12.67 mg/dL
POTASSIUM [1]: 7.1 MEQ/L
SODIUM [1]: 147.33 MEQ/L
TOTAL BILIRUBIN [1]: 0.52 mg/dL
TOTAL PROTEIN [1]: 6.18 G/DL
ABSOLUTE BASOPHIL [2]: 92 cells/µL
ABSOLUTE EOSINOPHIL [2]: 52 cells/µL
ABSOLUTE LYMPHOCYTE [2]: 6560 cells/µL
ABSOLUTE MONOCYTE [2]: 160 cells/µL
ABSOLUTE SEGMENTED NEUTROPHIL [2]: 1130 cells/µL
BASOPHIL [2]: 1.14% and 0.92%
EOSINOPHIL [2]: 0.68% and 0.43%
ERYTHROCYTE COUNT [2]: 7.51 x10E6/uL and 7.03 x10E6/uL
HEMATOCRIT [2]: 46.04% and 46.55%
HEMOGLOBIN [2]: 15.62 G/DL and 14.32 G/DL
LEUKOCYTE COUNT [2]: 8.03 x10E3/uL and 12.22 x10E3/uL
LYMPHOCYTE [2]: 81.54% and 82.65%
MEAN CORPUSCULAR HEMOGLOBIN [2]: 20.84 pg and 20.35 pg
MEAN CORPUSCULAR HEMOGLOBIN CONCENTRATION [2]: 33.94 G/DL and 30.77 G/DL
MEAN CORPUSCULAR VOLUME [2]: 61.42 fL and 66.28 fL
MONOCYTE [2]: 2% and 2.28%
NEUTROPHIL [2]: 14.24% and 12.73%
PLATELET COUNT [2]: 1427.2 x10E3/uL and 1268.67 x10E3/uL
ALANINE AMINOTRANSFERASE [2]: 35.6 u/L and 44.5 u/L
ALBUMIN [2]: 3.64 G/DL and 3.73 G/DL
ALKALINE PHOSPHATASE [2]: 233 u/L and 340.83 u/L
ASPARTATE AMINOTRANSFERASE [2]: 81 u/L and 66.5 u/L
BLOOD UREA NITROGEN [2]: 12 mg/dL and 13.33 mg/dL
CHLORIDE [2]: 109.4 MEQ/L and 102.17 MEQ/L
CHOLESTEROL [2]: 47.6 mg/dL and 82.17 mg/dL
CREATINE PHOSPHOKINASE [2]: 183.2 u/L and 146.67 u/L
CREATININE [2]: 0.4 mg/dL and 0.35 mg/dL
GLUCOSE [2]: 134.6 mg/dL and 186.17 mg/dL
LACTATE DEHYDROGENASE [2]: 89.4 u/L
LIPASE [2]: 17.2 u/L
PHOSPHORUS [2]: 13.02 mg/dL and 11.83 mg/dL
POTASSIUM [2]: 7 MEQ/L and 6.47 MEQ/L
SODIUM [2]: 149.6 MEQ/L and 148.83 MEQ/L
TOTAL PROTEIN [2]: 6.06 G/DL and 6.27 G/DL
URIC ACID [2]: 1.04 mg/dL
ABSOLUTE BASOPHIL [3]: 130 cells/µL
ABSOLUTE EOSINOPHIL [3]: 70 cells/µL
ABSOLUTE LYMPHOCYTE [3]: 8670 cells/µL
ABSOLUTE MONOCYTE [3]: 160 cells/µL
ABSOLUTE SEGMENTED NEUTROPHIL [3]: 1530 cells/µL
BASOPHIL [3]: 1.13%
EOSINOPHIL [3]: 0.66%
ERYTHROCYTE COUNT [3]: 9.13 x10E6/uL
HEMATOCRIT [3]: 48.47%
HEMOGLOBIN [3]: 16.56 G/DL
LEUKOCYTE COUNT [3]: 10.5 x10E3/uL
LYMPHOCYTE [3]: 81.63%
MEAN CORPUSCULAR HEMOGLOBIN [3]: 18.16 pg
MEAN CORPUSCULAR HEMOGLOBIN CONCENTRATION [3]: 34.14 G/DL
MEAN CORPUSCULAR VOLUME [3]: 53.14 fL
MONOCYTE [3]: 1.53%
NEUTROPHIL [3]: 14.71%
PLATELET COUNT [3]: 1280.22 x10E3/uL
ALANINE AMINOTRANSFERASE [3]: 28.89 u/L
ALBUMIN [3]: 3.69 G/DL
ALKALINE PHOSPHATASE [3]: 101.11 u/L
ASPARTATE AMINOTRANSFERASE [3]: 70.67 u/L
BLOOD UREA NITROGEN [3]: 16.78 mg/dL
CHLORIDE [3]: 104.56 MEQ/L
CHOLESTEROL [3]: 58.78 mg/dL
CREATINE PHOSPHOKINASE [3]: 91.22 u/L
CREATININE [3]: 0.61 mg/dL
GLUCOSE [3]: 142.33 mg/dL
LACTATE DEHYDROGENASE [3]: 81.67 u/L
LIPASE [3]: 13 u/L
PHOSPHORUS [3]: 7.54 mg/dL
POTASSIUM [3]: 6.27 MEQ/L
SODIUM [3]: 149.89 MEQ/L
TOTAL BILIRUBIN [3]: 0.19 mg/dL
TOTAL PROTEIN [3]: 7.12 G/DL
URIC ACID [3]: 0.97 mg/dL
ABSOLUTE BASOPHIL [4]: 150 cells/µL
ABSOLUTE EOSINOPHIL [4]: 54 cells/µL
ABSOLUTE LYMPHOCYTE [4]: 8890 cells/µL
ABSOLUTE MONOCYTE [4]: 190 cells/µL
ABSOLUTE SEGMENTED NEUTROPHIL [4]: 2250 cells/µL
BASOPHIL [4]: 1.26%
EOSINOPHIL [4]: 0.46%
ERYTHROCYTE COUNT [4]: 8.34 x10E6/uL
HEMATOCRIT [4]: 48.66%
HEMOGLOBIN [4]: 16.04 G/DL
LEUKOCYTE COUNT [4]: 11.58 x10E3/uL
LYMPHOCYTE [4]: 76.74%
MEAN CORPUSCULAR HEMOGLOBIN [4]: 19.2 pg
MEAN CORPUSCULAR HEMOGLOBIN CONCENTRATION [4]: 32.92 G/DL
MEAN CORPUSCULAR VOLUME [4]: 58.32 fL
MONOCYTE [4]: 1.76%
NEUTROPHIL [4]: 19.44%
PLATELET COUNT [4]: 1282.6 x10E3/uL
ALANINE AMINOTRANSFERASE [4]: 27 u/L
ALBUMIN [4]: 3.68 G/DL
ALKALINE PHOSPHATASE [4]: 146.2 u/L
ASPARTATE AMINOTRANSFERASE [4]: 66.6 u/L
BLOOD UREA NITROGEN [4]: 12.4 mg/dL
CHLORIDE [4]: 104.6 MEQ/L
CHOLESTEROL [4]: 59.6 mg/dL
CREATINE PHOSPHOKINASE [4]: 121.8 u/L
CREATININE [4]: 0.6 mg/dL
GLUCOSE [4]: 143 mg/dL
LACTATE DEHYDROGENASE [4]: 87.8 u/L
LIPASE [4]: 17.4 u/L
PHOSPHORUS [4]: 8.68 mg/dL
POTASSIUM [4]: 6.02 MEQ/L
SODIUM [4]: 152.8 MEQ/L
TOTAL BILIRUBIN [4]: 0.26 mg/dL
TOTAL PROTEIN [4]: 6.92 G/DL
URIC ACID [4]: 0.52 mg/dL
ABSOLUTE BASOPHIL [5]: 80 cells/µL
ABSOLUTE EOSINOPHIL [5]: 62 cells/µL
ABSOLUTE LYMPHOCYTE [5]: 9510 cells/µL
ABSOLUTE MONOCYTE [5]: 180 cells/µL
ABSOLUTE SEGMENTED NEUTROPHIL [5]: 1430 cells/µL
BASOPHIL [5]: 0.74%
EOSINOPHIL [5]: 0.56%
ERYTHROCYTE COUNT [5]: 7.55 x10E6/uL
HEMATOCRIT [5]: 45.54%
HEMOGLOBIN [5]: 15.6 G/DL
LEUKOCYTE COUNT [5]: 11.31 x10E3/uL
LYMPHOCYTE [5]: 84.24%
MEAN CORPUSCULAR HEMOGLOBIN [5]: 20.68 pg
MEAN CORPUSCULAR HEMOGLOBIN CONCENTRATION [5]: 34.26 G/DL
MEAN CORPUSCULAR VOLUME [5]: 60.36 fL
MONOCYTE [5]: 1.58%
NEUTROPHIL [5]: 12.46%
PLATELET COUNT [5]: 1331 x10E3/uL
ALANINE AMINOTRANSFERASE [5]: 31.8 u/L
ALBUMIN [5]: 3.5 G/DL
ALKALINE PHOSPHATASE [5]: 221.2 u/L
ASPARTATE AMINOTRANSFERASE [5]: 79.4 u/L
BLOOD UREA NITROGEN [5]: 10.4 mg/dL
CHLORIDE [5]: 108.8 MEQ/L
CHOLESTEROL [5]: 59.4 mg/dL
CREATINE PHOSPHOKINASE [5]: 166.8 u/L
CREATININE [5]: 0.52 mg/dL
GLUCOSE [5]: 110.6 mg/dL
LACTATE DEHYDROGENASE [5]: 103.8 u/L
LIPASE [5]: 24.4 u/L
PHOSPHORUS [5]: 11.66 mg/dL
POTASSIUM [5]: 6.5 MEQ/L
SODIUM [5]: 151 MEQ/L
TOTAL BILIRUBIN [5]: 0.2 mg/dL
TOTAL PROTEIN [5]: 6.1 G/DL
URIC ACID [5]: 0.72 mg/dL
ABSOLUTE BASOPHIL [6]: 410 cells/µL
ABSOLUTE EOSINOPHIL [6]: 110 cells/µL
ABSOLUTE LYMPHOCYTE [6]: 11200 cells/µL
ABSOLUTE MONOCYTE [6]: 290 cells/µL
ABSOLUTE SEGMENTED NEUTROPHIL [6]: 3040 cells/µL
BASOPHIL [6]: 2.71%

From ChEMBL document CHEMBL3885881, “DrugMatrix”
